These results are taken from US20200392084A1 (priority 2017, published 2020).

The conditions of series [1]: for hygroscopicity: Example 4; for moisture absorbed: at/up to 95% RH.
Series [2] in a line: Solvent solubility screen. It is filed as physicochemical. The conditions noted are these: thermodynamic from solid.
Series [3] in a line: pKa determination (UV-metric). It counts as physicochemical. Conditions: 0.15 M KCl.
Series [4] can be described thus: logP determination (pH-metric). The conditions noted are these: 24.9-25.0 °C, 0.15M KCl. It counts as physicochemical.
The conditions of series [5]: cited from earlier work.
Series [6] is described as follows: Stability assessment of diethylamine salt (Example 6). It is filed as physicochemical.
For series [7] the following is noted: 50° C./75% RH, t=5 days.
The mark [8] stands for this setting: 25° C./60% RH, 1 month (Day 35).
Setting [9] is: 25° C./60% RH, 3 months (Day 96).
Where [10] appears, read: 40° C./75% RH, 1 month (Day 35).
Setting [11] is: 40° C./75% RH, 3 months (Day 96).

Structures are written as SMILES. Values after ≈ are worked out from the molar mass of the structure shown. Read-outs that look alike come from different tables or passages of the source.

In the case of `NCCCC[C@H](N)C(=O)O.O=C(O)c1cc(/N=N/c2ccc(S(=O)(=O)Nc3ccccn3)cc2)ccc1O` [L-Lysine Salt, sulfasalazine L-lysine (1:1) salt], the “Post-agitation pH” value was found to be 1.91 (pH 1), 5.63 (pH 4.5) and 7.17 (pH 6.8). For the same molecule, the “Pre-agitation pH” value reads like this: (pH 1) 0.76; (pH 4.5) 4.70; (pH 6.8) 6.99.

Consider `NC(CO)(CO)CO.O=C(O)c1cc(/N=N/c2ccc(S(=O)(=O)Nc3ccccn3)cc2)ccc1O` [tromethamine salt Form A, sulfasalazine tromethamine (1:1) salt form (Form A)], for which, in [1], the hygroscopicity result is given as “hygroscopic” and the moisture absorbed entry is recorded as “over 8 wt %”.

In the case of `O=C(O)c1cc(/N=N/c2ccc(S(=O)(=O)Nc3ccccn3)cc2)ccc1O` [Sulfasalazine], the solubility (usually the dissolved amount per volume that the medium holds) in series [2] (1,4-dioxane, 40 °C, organic solvent or mixture, 1,4-Dixoane, read-out: Approx. Solubility) was < 5000 µg/mL; in [2] (1-butanol, 40 °C, organic solvent or mixture, read-out: Approx. Solubility), < 5000 µg/mL; in [2] (1-propanol, 40 °C, organic solvent or mixture, read-out: Approx. Solubility) it was < 5000 µg/mL; in series [2] (2-propanol, 40 °C, organic solvent or mixture, read-out: Approx. Solubility), < 5000 µg/mL; in [2] (2-propanol/water (50:50), 40 °C, aqueous with cosolvent or surfactant or cyclodextrin, read-out: Approx. Solubility) it was < 5000 µg/mL; in series [2] (40 °C, organic solvent or mixture, all solvents of the 24-solvent screen except DMF and THF, read-out: solubility values), < 5000 µg/mL. In addition, the solubility in series [2] (acetone, 40 °C, organic solvent or mixture, read-out: Approx. Solubility) is < 5000 µg/mL; in series [2] (acetone/water (50:50), 40 °C, aqueous with cosolvent or surfactant or cyclodextrin, read-out: Approx. Solubility), < 5000 µg/mL; in series [2] (acetonitrile, 40 °C, organic solvent or mixture, read-out: Approx. Solubility) it was < 5000 µg/mL; in [2] (acetonitrile/water (50:50), 40 °C, aqueous with cosolvent or surfactant or cyclodextrin, read-out: Approx. Solubility), < 5000 µg/mL; in [2] (dichloromethane, 40 °C, organic solvent or mixture, read-out: Approx. Solubility), < 5000 µg/mL; in [2] (dimethylformamide, organic solvent or mixture, read-out: Approx. Solubility) it was > 100000 µg/mL. The solubility in series [2] (ethanol, 40 °C, organic solvent or mixture, read-out: Approx. Solubility) was < 5000 µg/mL; in series [2] (ethyl acetate, 40 °C, organic solvent or mixture, read-out: Approx. Solubility) it was < 5000 µg/mL; in series [2] (ethyl formate, 40 °C, organic solvent or mixture, read-out: Approx. Solubility) it was < 5000 µg/mL; in series [2] (heptane, 40 °C, organic solvent or mixture, Hepatane, read-out: Approx. Solubility), < 5000 µg/mL; in series [2] (isobutyl acetate, 40 °C, organic solvent or mixture, read-out: Approx. Solubility), < 5000 µg/mL; in series [2] (isopropyl acetate, 40 °C, organic solvent or mixture, read-out: Approx. Solubility), < 5000 µg/mL. Also, the solubility in [2] (methanol, 40 °C, organic solvent or mixture, read-out: Approx. Solubility) is < 5000 µg/mL; in series [2] (methanol/water (50:50), 40 °C, aqueous with cosolvent or surfactant or cyclodextrin, read-out: Approx. Solubility), < 5000 µg/mL; in series [2] (methyl ethyl ketone, 40 °C, organic solvent or mixture, Methylethyl Ketone, read-out: Approx. Solubility), < 5000 µg/mL; in series [2] (nitromethane, 40 °C, organic solvent or mixture, read-out: Approx. Solubility), < 5000 µg/mL; in series [2] (tetrahydrofuran, organic solvent or mixture, read-out: Approx. Solubility), 10000 µg/mL (≈ 25.1 mM); in [2] (toluene, 40 °C, organic solvent or mixture, read-out: Approx. Solubility), < 5000 µg/mL. Moreover, the solubility in [2] (water, 40 °C, water, read-out: Approx. Solubility) is < 5000 µg/mL; in “physchem” (acetone, organic solvent or mixture) it was 1100 µg/mL (≈ 2.76 mM); in the series “physchem” (acetonitrile, organic solvent or mixture), 300 µg/mL (≈ 0.753 mM); in the series “physchem” (ethanol, organic solvent or mixture), 500 µg/mL (≈ 1.26 mM); in the series “physchem” (ethyl acetate, organic solvent or mixture), 400 µg/mL (≈ 1 mM); in “physchem” (isopropyl alcohol, organic solvent or mixture), 500 µg/mL (≈ 1.26 mM). Also, the solubility in “physchem” (methanol, organic solvent or mixture) worked out at 900 µg/mL (≈ 2.26 mM); in the series “physchem” (methyl ethyl ketone, organic solvent or mixture), 900 µg/mL (≈ 2.26 mM); in the series “physchem” (methyl tert-butyl ether, organic solvent or mixture), 300 µg/mL (≈ 0.753 mM); in “physchem” (water), 400 µg/mL (≈ 1 mM). The pKa (usually the negative logarithm of the acid dissociation constant) is 2.29 in [3] (Type Acid (first acidic group), 25.0 °C); 11 in series [3] (Type Acid (second acidic group), 25.0-25.1 °C); ~8.05 in series [3] (Type Base (pyridine), 25.0-25.1 °C). For the same molecule, the values for the lipophilicity (LogP) in series [4] (Cationic species) and in series [4] (Zwitterionic species) were 3.73 ± 0.01 and 0.02 ± 0.03, respectively. The “Thermodynamic solubility, Concentration” value is, setting by setting: (pH 1) “Less than the limit”; (pH 4.5) “Less than the limit”; (pH 6.8) “Less than the limit”. The “Significant side effects occur in” value in series [5] (of people) is listed as “about 25%”.

Consider `CCNCC.O=C(O)c1cc(/N=N/c2ccc(S(=O)(=O)Nc3ccccn3)cc2)ccc1O` [diethylamine salt Form A, sulfasalazine diethylamine salt Form A], for which, in series [6] (setting [8]), the Appearance result was “Dark Orange”; the “Assay (Anhydrous, Solvent Free)” value is listed as 97.2% (w/w %); the “Total Impurities” value is 0.87%; the “Water Content” value is 0.8% (w/w %). Moreover, in series [6] (setting [8]), the “XRPD (Conforms to Form A)” value is “Conforms to”. In series [6] (setting [9]), the Appearance result was “Dark Orange”; the “Assay (Anhydrous, Solvent Free)” value is 95.9% (w/w %); the “Total Impurities” value amounted to 0.76%; the “Water Content” value was 0.7% (w/w %). In [6] (setting [9]), the “XRPD (Conforms to Form A)” value is recorded as “Conforms to”. Besides, in [6] (setting [10]), the Appearance result is on record as “Dark Orange”; the “Assay (Anhydrous, Solvent Free)” value was 97.9% (w/w %); the “Total Impurities” value is 0.87%; the “Water Content” value was 1.1% (w/w %). Also, the “XRPD (Conforms to Form A)” value in [6] (setting [10]) is listed as “Conforms to”. Moreover, in [6] (setting [11]), the Appearance result is given as “Dark Orange”; the “Assay (Anhydrous, Solvent Free)” value is recorded as 96.5% (w/w %); the “Total Impurities” value worked out at 0.77%; the “Water Content” value was 1.1% (w/w %). The “XRPD (Conforms to Form A)” value in series [6] (setting [11]) is “Conforms to”. Further, in [6] (T = 0 (Day 0)), the Appearance result is “Dark Orange”; the “Assay (Anhydrous, Solvent Free)” value is listed as 99.6% (w/w %); the “Total Impurities” value came out at 0.73%; the “Water Content” value is 0.4% (w/w %). Also, the “XRPD (Conforms to Form A)” value in series [6] (T = 0 (Day 0)) is reported as “Conforms to”. In addition, in series [1], the hygroscopicity entry is on record as “slightly hygroscopic” and the moisture absorbed result is on record as “more than 1 wt %”. Also, the stability entry in series [7] is listed as “no evidence of degradation”.

As to `Nc1ccc(S(=O)(=O)Nc2ccccn2)cc1` [Sulfapyridine, sulfapyridine], in [5] (of recipients), the allergic reactions is on record as 3-8%.
